Data reported in US12577257B2, “Heterocyclic compounds” (Hoffmann-La Roche Inc., priority 2018, dated 2026).

target: T1, MAGL (recombinant wild-type) (Homo sapiens, UniProt Q99685); assay: 4-NPA assay: MAGL hydrolysis of 4-nitrophenylacetate, absorbance at 405 nm; type: biochemical; details: footnote [b]: measured in 4-NPA assay
T1 sequence (Q99685 1-303): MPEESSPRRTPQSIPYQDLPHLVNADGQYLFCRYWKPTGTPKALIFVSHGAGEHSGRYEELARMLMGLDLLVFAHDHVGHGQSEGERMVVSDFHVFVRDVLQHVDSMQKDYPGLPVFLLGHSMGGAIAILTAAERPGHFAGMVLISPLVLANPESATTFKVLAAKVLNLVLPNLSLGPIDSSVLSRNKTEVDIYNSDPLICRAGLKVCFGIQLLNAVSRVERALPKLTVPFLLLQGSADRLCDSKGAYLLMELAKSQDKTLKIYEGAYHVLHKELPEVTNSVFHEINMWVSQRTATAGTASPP
Description: (§1) Compounds were profiled for MAGL inhibitory activity by measuring the enzymatic activity of MAGL by following the hydrolysis of 4-nitrophenylacetate resulting in 4-nitrophenol, which absorbs at 405-412 nm (G. G. Muccioli, G. Labar, D. M. Lambert, Chem. Bio. Chem. 2008, 9, 2704-2710). This assay is hereinafter abbreviated “4-NPA assay”.
(§2) The 4-NPA assay was carried out in 384 well assay plates (black with clear bottom, non-binding surface treated, Corning Ref. 3655) in a total volume of 40 μL. Compound dilutions were made in 100% DMSO (VWR Chemicals 23500.297) in a polypropylene plate in 3-fold dilution steps to give a final concentration range in the assay from 25 μM to 1.7 nM. 1 μL compound dilutions (100% DMSO) were added to 19 μL MAGL (recombinant wild-type) in assay buffer (50 mM TRIS (GIBCO, 15567-027), 1 mM EDTA (Fluka, 03690-100 ml)). The plate was shaked for 1 min at 2000 rpm (Variomag Teleshake) and then incubated for 15 min at RT. To start the reaction, 20 μL 4-Nitrophenylacetate (Sigma N-8130) in assay buffer with 6% EtOH was added. The final concentrations in the assay were 1 nM MAGL and 300 μM 4-Nitrophenylacetate. After shaking (1 min, 2000 rpm) and 5 min incubation at RT, the absorbance at 405 nm was measured for a first time (Molecular Devices, SpectraMax Paradigm). A second measurement was then done after incubation for 80 min at RT. From the two measurements, the slope was calculated by subtracting the first from the second measurement.

**Q.** With `CC(C)(C)OC(=O)N1CC2(CCN(C(=O)N3CC[C@@H]4OCC(=O)N[C@@H]4C3)C2)C1` (racemic) [Int-1, rac-tert-Butyl 6-((4aR,8aS)-3-oxooctahydro-2H-pyrido[4,3-b][1,4]oxazine-6-carbonyl)-2,6-diazaspiro[3.4]octane-2-carboxylate] as the molecule, how does the IC50 read?
**A.** 539 nM

**Q.** With `O=C1CO[C@H]2CCN(C(=O)N3CCC4(CC3)CN(S(=O)(=O)c3ccccc3)C4)C[C@H]2N1` [Example 39, (4aR,8aS)-6-(2-(Phenylsulfonyl)-2,7-diazaspiro[3.5]nonane-7-carbonyl)hexahydro-2H-pyrido[4,3-b][1,4]oxazin-3(4H)-one] as the molecule, how does the IC50 read?
**A.** 599 nM

**Q.** How did the IC50 turn out when `O=C1CO[C@H]2CCN(C(=O)N3CCC4(CC3)CN(S(=O)(=O)c3ccc(F)cc3)CCO4)C[C@H]2N1` (racemic) [Example 21, rac-(4aR,8aS)-6-(4-((4-Fluorophenyl)sulfonyl)-1-oxa-4,9-diazaspiro[5.5]undecane-9-carbonyl)hexahydro-2H-pyrido[4,3-b][1,4]oxazin-3(4H)-one] was run?
**A.** 836 nM

**Q.** For `O=C1CO[C@H]2CCN(C(=O)N3CCC4(C3)CN(C(c3ccccc3)c3ccccc3)C4)C[C@H]2N1` (racemic) [Example 20, rac-(4aR,8aS)-6-(2-Benzhydryl-2,6-diazaspiro[3.4]octane-6-carbonyl)hexahydro-2H-pyrido[4,3-b][1,4]oxazin-3(4H)-one], which IC50 is on record?
**A.** 2690 nM

target: T2, MAGL (Homo sapiens, UniProt Q99685); assay: MAGL inhibition, Table 1 values with no assay marker (2-AG or 4-NPA assay not stated); type: biochemical; details: not given
T2 sequence (Q99685 1-303): T1 sequence (Q99685 1-303)
Description: as §1, §2
Alternatively, compounds were profiled for MAGL inhibitory activity by determining the enzymatic activity by following the hydrolysis of the natural substrate 2-arachidonoylglycerol resulting in arachidonic acid, which can be followed by mass spectrometry. This assay is hereinafter abbreviated “2-AG assay”.
The 2-AG assay was carried out in 384 well assay plates (PP, Greiner Cat #784201) in a total volume of 20 μL. Compound dilutions were made in 100% DMSO (VWR Chemicals 23500.297) in a polypropylene plate in 3-fold dilution steps to give a final concentration range in the assay from 12.5 μM to […]. 0.25 μL compound dilutions (100% DMSO) were added to 9 μL MAGL in assay buffer (50 mM TRIS (GIBCO, 15567-027), 1 mM EDTA (Fluka, 03690-100 ml), 0.01% (v/v) Tween. After shaking, the plate was incubated for 15 min at RT. To start the reaction, 10 μL 2-arachidonoylglycerol in assay buffer was added. The final concentrations in the assay was […] and 8 μM 2-arachidonoylglycerol. After shaking and 30 min incubation at RT, the reaction was quenched by the addition of 40 μL of acetonitrile containing 4 μM of d8-arachidonic acid. The amount of arachidonic acid was traced by an online SPE system (Agilent Rapidfire) coupled to a triple quadrupole mass spectrometer (Agilent 6460). A C18 SPE cartridge (G9205A) was used in an acetonitrile/water liquid setup. The mass spectrometer was operated in negative electrospray mode following the mass transitions 303.1→259.1 for arachidonic acid and 311.1→267.0 for d8-arachidonic acid. The activity of the compounds was calculated based on the ratio of intensities [arachidonic acid/d8-arachidonic acid].

**Q.** `O=C1CO[C@H]2CCN(C(=O)N3CC4(CC(c5ccc(N6CCCC6C(F)(F)F)cc5)C4)C3)C[C@H]2N1` (stereo partly drawn) [Example 47, (4aR,8aS)-6-(6-(4-(2-(trifluoromethyl)pyrrolidin-1-yl)phenyl)-2-azaspiro[3.3]heptane-2-carbonyl)hexahydro-2H-pyrido[4,3-b][1,4]oxazin-3(4H)-one] was tested. Which IC50 did it give?
**A.** 39.8 nM

**Q.** Which IC50 does the source give for `O=C1CO[C@H]2CCN(C(=O)N3CC4(CC(c5ccc(S(F)(F)(F)(F)F)cc5)C4)C3)C[C@H]2N1` [Example 46, (4aR,8aS)-6-(6-(4-(pentafluoro-l6-sulfaneyl)phenyl)-2-azaspiro[3.3]heptane-2-carbonyl)hexahydro-2H-pyrido[4,3-b][1,4]oxazin-3(4H)-one] here?
**A.** 14.5 nM

**Q.** Which IC50 does the source give for `O=C1CO[C@H]2CCN(C(=O)N3CC4(CC(Cc5c(O)cccc5F)C4)C3)C[C@H]2N1` [Example 73, (4aR,8aS)-6-(6-(2-fluoro-6-hydroxybenzyl)-2-azaspiro[3.3]heptane-2-carbonyl)hexahydro-2H-pyrido[4,3-b][1,4]oxazin-3(4H)-one] here?
**A.** 0.1 nM
